How the values were obtained:
[1] = Cytotoxicity against rat H4G1.1c3 cells at 10 to 50 uM after 24 hr; assay type: cell-based
[2] = biological target: T1, Aryl hydrocarbon receptor (Homo sapiens, UniProt P35869); test: (§1) Competitive binding affinity to full length N-terminal GFP-fused Homo sapiens (human) aryl hydrocarbon receptor ligand binding domain (848 amino acid residues) expressed in baculovirus infected Sf9 cells assessed as reversal of betaNFQ-mediated fluorescence quenching at 5 uM measured at 5 min by fluorescence microscopic analysis; details: sf9, 5 min
T1 sequence (P35869 whole entry): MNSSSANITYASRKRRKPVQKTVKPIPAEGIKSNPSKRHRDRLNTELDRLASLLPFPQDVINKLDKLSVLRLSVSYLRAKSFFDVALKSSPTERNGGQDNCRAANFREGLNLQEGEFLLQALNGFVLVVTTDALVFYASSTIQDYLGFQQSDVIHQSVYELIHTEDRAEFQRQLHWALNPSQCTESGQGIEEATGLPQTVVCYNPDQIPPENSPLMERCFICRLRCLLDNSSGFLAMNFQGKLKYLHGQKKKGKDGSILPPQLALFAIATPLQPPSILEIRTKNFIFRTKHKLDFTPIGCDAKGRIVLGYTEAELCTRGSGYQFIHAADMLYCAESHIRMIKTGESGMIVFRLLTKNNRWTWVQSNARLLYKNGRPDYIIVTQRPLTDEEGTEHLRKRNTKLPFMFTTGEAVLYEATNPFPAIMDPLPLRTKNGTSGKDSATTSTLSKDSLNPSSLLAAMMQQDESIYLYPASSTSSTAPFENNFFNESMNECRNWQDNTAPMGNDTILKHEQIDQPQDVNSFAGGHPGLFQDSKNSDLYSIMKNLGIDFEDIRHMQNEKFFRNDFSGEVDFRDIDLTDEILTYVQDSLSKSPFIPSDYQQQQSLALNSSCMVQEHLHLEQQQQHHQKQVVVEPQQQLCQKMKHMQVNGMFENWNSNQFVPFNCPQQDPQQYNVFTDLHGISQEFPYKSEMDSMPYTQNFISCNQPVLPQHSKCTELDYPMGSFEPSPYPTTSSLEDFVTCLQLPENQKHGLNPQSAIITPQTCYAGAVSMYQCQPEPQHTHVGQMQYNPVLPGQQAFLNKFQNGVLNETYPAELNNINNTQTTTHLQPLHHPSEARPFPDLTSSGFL

[3] = biological target: T1, Aryl hydrocarbon receptor; test: as §1, with “4-((4-(dimethylamino)phenyl)diazenyl)-N-(2-(2-(2-(2-hydroxyethoxy)ethoxy)ethoxy)ethyl)benzamide4-((4-(dimethylamino)phenyl)diazenyl)-N-(2-(2-(2-(2-hydroxyethoxy)ethoxy)ethoxy)ethyl)benzamide-mediated” for “betaNFQ-mediated”; details: sf9, 5 min
[4] = biological target: T2, Aryl hydrocarbon receptor (Rattus norvegicus, UniProt P41738); test: Partial agonist activity at DRE-driven GFP-fused AhR ligand binding domain in rat H4G1.1c3 cells assessed as induction of DRE-driven GFP expression at 50 uM after 48 hr by fluorescence assay; assay type: cell-based
T2 sequence (P41738 whole entry): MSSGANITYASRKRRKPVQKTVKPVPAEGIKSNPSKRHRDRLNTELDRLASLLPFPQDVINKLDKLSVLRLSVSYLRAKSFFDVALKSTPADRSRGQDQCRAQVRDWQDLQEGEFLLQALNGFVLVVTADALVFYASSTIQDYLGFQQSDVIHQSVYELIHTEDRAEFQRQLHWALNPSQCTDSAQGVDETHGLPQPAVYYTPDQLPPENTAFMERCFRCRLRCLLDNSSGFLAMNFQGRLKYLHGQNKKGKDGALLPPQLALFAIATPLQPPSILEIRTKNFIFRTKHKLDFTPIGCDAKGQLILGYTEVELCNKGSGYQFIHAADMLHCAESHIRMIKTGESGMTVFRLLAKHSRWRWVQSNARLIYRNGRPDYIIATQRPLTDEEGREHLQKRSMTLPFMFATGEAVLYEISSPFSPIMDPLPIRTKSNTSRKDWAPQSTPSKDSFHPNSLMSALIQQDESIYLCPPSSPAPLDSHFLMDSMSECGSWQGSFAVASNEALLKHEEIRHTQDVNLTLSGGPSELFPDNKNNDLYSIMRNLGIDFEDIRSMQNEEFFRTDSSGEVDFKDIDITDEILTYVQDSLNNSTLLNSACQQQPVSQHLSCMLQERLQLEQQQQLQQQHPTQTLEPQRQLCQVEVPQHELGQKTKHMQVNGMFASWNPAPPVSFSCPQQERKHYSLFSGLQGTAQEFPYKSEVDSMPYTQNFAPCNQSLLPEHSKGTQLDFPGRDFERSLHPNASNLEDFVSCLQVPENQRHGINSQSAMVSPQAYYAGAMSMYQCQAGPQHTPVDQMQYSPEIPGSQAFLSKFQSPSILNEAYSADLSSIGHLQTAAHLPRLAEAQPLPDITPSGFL

[5] = biological target: T1, Aryl hydrocarbon receptor; test: Competitive binding affinity to aryl hydrocarbon receptor in Homo sapiens (human) Hep3B cells assessed as supression of betaNF-mediated DRE-driven luciferase expression at 10 uM after 6 hr by Western blot analysis relative to control; assay type: cell-based; details: hep 3b2, 6 h
[6] = biological target: T1, Aryl hydrocarbon receptor; test: Binding affinity to aryl hydrocarbon receptor in Homo sapiens (human) Hep3B cells assessed as upregulation of DRE-driven luciferase expression at 10 uM after 6 hr by Western blot analysis relative to control; assay type: cell-based, Hep 3B2; details: Hep3B cells with DRE-driven luciferase reporter, read-out: FC
[7] = biological target: T1, Aryl hydrocarbon receptor; test: Binding affinity to full length N-terminal GFP-fused Homo sapiens (human) aryl hydrocarbon receptor ligand binding domain (848 amino acid residues) expressed in baculovirus infected Sf9 cells assessed as fluorescence quenching at 10 uM after 10 min by fluorescence microscopic analysis; details: sf9, 10 min
[8] = biological target: T1, Aryl hydrocarbon receptor; test: Binding affinity to full length N-terminal GFP-fused Homo sapiens (human) aryl hydrocarbon receptor ligand binding domain (848 amino acid residues) expressed in baculovirus infected Sf9 cells assessed as fluorescence quenching at 10 uM up to 30 min by fluorescence microscopic analysis; details: sf9, 0.5 h
[9] = biological target: T1, Aryl hydrocarbon receptor; test: Binding affinity to full length N-terminal GFP-fused Homo sapiens (human) aryl hydrocarbon receptor ligand binding domain (848 amino acid residues) expressed in baculovirus infected Sf9 cells assessed as fluorescence quenching at 10 uM after 5 min by fluorescence microscopic analysis; details: sf9, 5 min
[10] = biological target: T2, Aryl hydrocarbon receptor; test: Agonist activity at DRE-driven GFP-fused AhR ligand binding domain in rat H4G1.1c3 cells assessed as induction of DRE-driven GFP expression at 10 uM after 48 hr by fluorescence assay; assay type: cell-based
[11] = biological target: T1, Aryl hydrocarbon receptor; test: Binding affinity to aryl hydrocarbon receptor in Homo sapiens (human) Hep3B cells assessed as upregulation of DRE-driven luciferase expression at 10 uM after 6 hr by Western blot analysis; assay type: cell-based; details: hep 3b2, 6 h
[12] = biological target: T1, Aryl hydrocarbon receptor; test: Competitive binding affinity to aryl hydrocarbon receptor in Homo sapiens (human) Hep3B cells assessed as effect on betaNF-mediated DRE-driven luciferase expression at 10 uM after 6 hr by Western blot analysis relative to control; assay type: cell-based; details: hep 3b2, 6 h

Structure (SMILES) | Activity [1] | Activity [4] | fold induction at 6 h, 10 µM [6] | Activity [7] | Activity [9] | other results
CN(C)c1ccc(/N=N/c2ccc(C(=O)NCCOCCOCCOCCOCCOCCOCCOCCOCc3ccc(-c4cc(=O)c5c(ccc6ccccc65)o4)cc3)cc2)cc1 | Toxic | – | – | – | – | –
Cc1ccc2cc3c(ccc4ccccc43)c3c2c1CC3 [3-METHYLCHOLANTHRENE] | – | – | – | – | – | Activity [2]: Active; Activity [3]: Not Active
CN(C)c1ccc(/N=N/c2ccc(C(=O)NCCOCCOCCOCCOCc3ccc(-c4cc(=O)c5c(ccc6ccccc65)o4)cc3)cc2)cc1 | Non-toxic | Active | 14 | 24% | 18% | fold change (FC) [5]: 23; Activity [8]: 29%
O=c1cc(-c2ccccc2)oc2ccc3ccccc3c12 [BETA-NAPHTHOFLAVONE] | – | – | 75 | – | – | Activity [10]: Active
CN(C)c1ccc(/N=N/c2ccc(C(=O)NCCOCCOCCOCCO)cc2)cc1 | – | Not Active | – | 16% | 13% | Activity [11]: Not Active; Activity [12]: Not Active
